Reference: PMC11458808, “Identification and development of a series of disubstituted piperazines for the treatment of Chagas disease” (European Journal of Medicinal Chemistry, 2022)
In brackets after ≈: the same amount, converted by molar mass.

Tests used:
[1] = Aqueous (kinetic) solubility by CAD; assay type: physicochemical; settings: kinetic solubility measured by CAD
Experimental: 2.1 Aqueous solubility: This assay was conducted as previously described in [4].

[2] = Intrinsic clearance in mouse liver microsomes; assay type: in vitro ADME; settings: for Mouse CLi: mouse liver microsomal intrinsic clearance
Experimental: 2.2 Intrinsic clearance: This assay was conducted as previously described in [5].

[3] = system: intracellular T. cruzi X10/7 A1 amastigotes; assay: Intracellular T. cruzi assay; assay type: cell-based, Trypanosoma cruzi; settings: for EC50: Trypanosoma cruzi, read-out: T. cruzi (pEC50) (converted); for Activity in the intracellular T. cruzi assay (in words): purified compound
Experimental: 1.1 Intracellular T. cruzi assay: Potency against intracellular T. cruzi X10/7 A1 amastigotes was determined as described previously with as sole modification that the compound treatment duration was increased from 72h to 96h.

[4] = ChromLogD pH7.4 (chromatographic hydrophobicity index); assay type: physicochemical; settings: pH 7.4, CHIpH7.4 × 0.0857–2; for chromatographic logD: read-out: ChromlogDpH7.4
[5] = potency against intracellular T. cruzi amastigotes, at least three independent replicates, standard deviations ≤0.2

For `O=C(c1cccc(Cl)c1)N1CCN(Cc2ccc(NS(=O)(=O)c3ccc4c(c3)OCO4)cc2)CC1` [Compound 6, N-(4-((4-(3-chlorobenzoyl)piperazin-1-yl)methyl)phenyl)benzo[d][1,3]dioxole-5-sulfonamide], which solubility [1] is on record?
The solubility was 33 µM (≈ 17 µg/mL).

What about the “Mouse CLi” value [2] of the same compound?
The value was greater than 50 mL/min/g.

And the EC50 [3, 5]?
Its EC50 is 0.158 µM.

And the chromatographic logD [4]?
Its chromatographic logD is 5.2.

With `COc1ccc(S(=O)(=O)Nc2ccc(CN3CCN(C(=O)c4ccc(OC)c(Cl)c4)CC3)cc2)cc1` [Compound 13, N-[4-[[4-(3-chloro-4-methoxy-benzoyl)piperazin-1-yl]methyl]phenyl]-4-methoxy-benzenesulfonamide] as the compound, how does the solubility [1] read?
Its solubility is 18 µM (≈ 9.54 µg/mL).

And the “Mouse CLi” value [2]?
The value was greater than 50 mL/min/g.

And the EC50 [3, 5]?
The EC50 was 3.16 µM.

And the chromatographic logD [4]?
The chromatographic logD was 5.1.

With `Cc1ccc(S(=O)(=O)Nc2ccc(CN3C[C@@H]4CN(C(=O)c5cccc(Cl)c5)C[C@@H]4C3)cc2)cc1` [Compound 35, N-(4-(((3aR,6aS)-5-(3-chlorobenzoyl)hexahydropyrrolo[3,4-c]pyrrol-2(1H)-yl)methyl)phenyl)-4-methylbenzenesulfonamide] as the compound, how does the solubility [1] read?
Its solubility is 25 µM (≈ 12.8 µg/mL).

What about the “Mouse CLi” value [2] of the same compound?
Its value is greater than 50 mL/min/g.

What about the EC50 [3, 5] of the same compound?
The EC50 was 6.31 µM.

And the chromatographic logD [4]?
The chromatographic logD was 5.8.

What does the source list for `COc1ccc(S(=O)(=O)Nc2cnc(CN3CCN(C(=O)c4cccc(Cl)c4)CC3)cn2)cc1` [Compound 45, N-(5-((4-(3-chlorobenzoyl)piperazin-1-yl)methyl)pyrazin-2-yl)-4-methoxybenzenesulfonamide]?
solubility [1]: ≥ 414 µM; Mouse CLi [2]: 1.3 mL/min/g; EC50 [3, 5]: > 50.1 µM; Activity in the intracellular T. cruzi assay (in words) [3]: lacked any activity; chromatographic logD [4]: 2.8

With `COc1ccc(S(=O)(=O)Nc2cnc(CN3CCN(C(=O)c4cccc(Cl)c4)CC3)nc2)cc1` [Compound 43, N-(2-((4-(3-chlorobenzoyl)piperazin-1-yl)methyl)pyrimidin-5-yl)-4-methoxybenzenesulfonamide] as the compound, how does the solubility [1] read?
Its solubility is no less than 474 µM.

What about the “Mouse CLi” value [2] of the same compound?
The value was 1.5 mL/min/g.

And the EC50 [3, 5]?
Its EC50 is greater than 50.1 µM.

What about the “Activity in the intracellular T. cruzi assay (in words)” value (“Activity” below) [3] of the same compound?
The value was “lacked any activity”.

And the chromatographic logD [4]?
Its chromatographic logD is 2.9.

Which solubility [1] does the source give for `Cc1ccc(S(=O)(=O)Nc2ccc(CN[C@@H]3CCN(C(=O)c4cccc(Cl)c4)C3)cc2)cc1` [Compound 32, (R)-N-(4-(((1-(3-chlorobenzoyl)pyrrolidin-3-yl)amino)methyl)phenyl)-4-methylbenzenesulfonamide] here?
The solubility was 75 µM (≈ 36.3 µg/mL).

And the “Mouse CLi” value [2]?
Its value is 48 mL/min/g.

What about the EC50 [3, 5] of the same compound?
Its EC50 is 15.8 µM.

What about the chromatographic logD [4] of the same compound?
The chromatographic logD was 4.9.

With `Cc1ccc(S(=O)(=O)Nc2ccc(CN(C)C3CCN(C(=O)c4cccc(Cl)c4)C3)cc2)cc1` (stereo in doubt) [Compound 34, (S)-N-(4-(((1-(3-chlorobenzoyl)pyrrolidin-3-yl)(methyl)amino)methyl)phenyl)-4-methylbenzenesulfonamide] as the compound, how does the solubility [1] read?
The solubility was 28 µM (≈ 13.9 µg/mL).

What about the “Mouse CLi” value [2] of the same compound?
The value was greater than 50 mL/min/g.

And the EC50 [3, 5]?
Its EC50 is 10 µM.

And the chromatographic logD [4]?
The chromatographic logD was 5.7.

Which results are given for “4-methoxy-N-(4-((4-(1-methyl-4-oxo-1,4-dihydroquinoline-2-carbonyl)piperazin-1-yl)methyl)phenyl)benzenesulfonamide [Compound 27]”?
solubility [1]: 29 µM; Mouse CLi [2]: >50 mL/min/g; T. cruzi (pEC50) [3, 5]: 5.4; ChromlogDpH7.4 [4]: 5.4

With `COc1ccc(S(=O)(=O)Nc2ccc(CN3CCN(C(=O)c4cc(C(F)(F)F)n[nH]4)CC3)cc2)cc1` [Compound 17, 4-methoxy-N-(4-((4-(5-(trifluoromethyl)-1H-pyrazole-3-carbonyl)piperazin-1-yl)methyl)phenyl)benzenesulfonamide] as the compound, how does the solubility [1] read?
Its solubility is 122 µM (≈ 63.9 µg/mL).

And the “Mouse CLi” value [2]?
The value was 6.4 mL/min/g.

What about the EC50 [3, 5] of the same compound?
Its EC50 is 6.31 µM.

What about the chromatographic logD [4] of the same compound?
Its chromatographic logD is 4.9.

For `Cc1ccc(S(=O)(=O)Nc2ccc(CN(C)[C@H]3CCN(C(=O)c4cccc(Cl)c4)C3)cc2)cc1` [Compound 33, (S)-N-(4-(((1-(3-chlorobenzoyl)pyrrolidin-3-yl)(methyl)amino)methyl)phenyl)-4-methylbenzenesulfonamide], which solubility [1] is on record?
Its solubility is 27 µM (≈ 13.4 µg/mL).

What about the “Mouse CLi” value [2] of the same compound?
Its value is greater than 50 mL/min/g.

What about the EC50 [3, 5] of the same compound?
Its EC50 is 6.31 µM.

And the chromatographic logD [4]?
Its chromatographic logD is 5.7.

Which results are given for `Cc1ccc(S(=O)(=O)Nc2ccc(CNC3CN(C(=O)c4cccc(Cl)c4)C3)cc2)cc1` [Compound 38, N-(4-(((1-(3-chlorobenzoyl)azetidin-3-yl)amino)methyl)phenyl)-4-methylbenzenesulfonamide]?
solubility [1]: 70 µM (≈ 32.9 µg/mL); Mouse CLi [2]: >50 mL/min/g; EC50 [3, 5]: 12.6 µM; chromatographic logD [4]: 4.8

Which results are given for `Cc1ccc(S(=O)(=O)Nc2ccc(CN[C@H]3CCN(C(=O)c4cccc(Cl)c4)C3)cc2)cc1` [Compound 31, (S)-N-(4-(((1-(3-chlorobenzoyl)pyrrolidin-3-yl)amino)methyl)phenyl)-4-methylbenzenesulfonamide]?
solubility [1]: 72 µM (≈ 34.8 µg/mL); Mouse CLi [2]: >50 mL/min/g; EC50 [3, 5]: 10 µM; chromatographic logD [4]: 4.9

With `CN1CCN(S(=O)(=O)Nc2ccc(CN3CCN(C(=O)c4cccc(Cl)c4)CC3)cc2)CC1` [Compound 9, N-(4-((4-(3-chlorobenzoyl)piperazin-1-yl)methyl)phenyl)-4-methylpiperazine-1-sulfonamide] as the compound, how does the solubility [1] read?
Its solubility is no less than 430 µM.

And the “Mouse CLi” value [2]?
The value was 32 mL/min/g.

And the EC50 [3, 5]?
Its EC50 is 15.8 µM.

And the chromatographic logD [4]?
The chromatographic logD was 4.1.

For `COc1ccc(S(=O)(=O)Nc2ccc(CN3CC[C@H](NC(=O)c4cccc(Cl)c4)C3)cc2)cc1` [Compound 30, (S)-3-chloro-N-(1-(4-((4-methoxyphenyl)sulfonamido)benzyl)pyrrolidin-3-yl)benzamide], which solubility [1] is on record?
The solubility was 51 µM (≈ 25.5 µg/mL).

What about the “Mouse CLi” value [2] of the same compound?
The value was greater than 50 mL/min/g.

What about the EC50 [3, 5] of the same compound?
Its EC50 is 50.1 µM.

What about the chromatographic logD [4] of the same compound?
The chromatographic logD was 5.1.

With `COc1ccc(S(=O)(=O)Nc2ccc(CN3CCN(C(=O)c4cccc(Cl)c4)CC3)nc2)cc1` [Compound 44, N-(6-((4-(3-chlorobenzoyl)piperazin-1-yl)methyl)pyridin-3-yl)-4-methoxybenzenesulfonamide] as the compound, how does the solubility [1] read?
Its solubility is no less than 373 µM.

What about the “Mouse CLi” value [2] of the same compound?
The value was 39 mL/min/g.

What about the EC50 [3, 5] of the same compound?
The EC50 was 7.94 µM.

What about the chromatographic logD [4] of the same compound?
Its chromatographic logD is 4.5.

Which solubility [1] does the source give for `Cc1ccc(S(=O)(=O)Nc2ccc(NC3CCN(C(=O)c4cccc(Cl)c4)CC3)cc2)cc1` [Compound 36, N-(4-((1-(3-chlorobenzoyl)piperidin-4-yl)amino)phenyl)-4-methylbenzenesulfonamide] here?
Its solubility is 18 µM (≈ 8.71 µg/mL).

What about the “Mouse CLi” value [2] of the same compound?
The value was 25 mL/min/g.

And the EC50 [3, 5]?
The EC50 was 20 µM.

And the chromatographic logD [4]?
Its chromatographic logD is 5.6.

With `COc1ccc(S(=O)(=O)Nc2ccc(CN3CCN(C(=O)c4cccc(Cl)c4)CC3)cc2)cc1` [Compound 4, N-(4-((4-(3-chlorobenzoyl)piperazin-1-yl)methyl)phenyl)-4-methoxybenzenesulfonamide] as the compound, how does the solubility [1] read?
The solubility was 43 µM (≈ 21.5 µg/mL).

What about the “Clearance (mouse liver microsomal)” value [2] of the same compound?
Its value is greater than 50 mL/min/g.

What about the “Mouse CLi” value [2] of the same compound?
The value was greater than 50 mL/min/g.

And the EC50 [3, 5]?
The EC50 was 0.501 µM.

And the chromatographic logD [4]?
The chromatographic logD was 5.6.

Which solubility [1] does the source give for `CS(=O)(=O)Nc1ccc(CN2CCN(C(=O)c3cccc(Cl)c3)CC2)cc1` [Compound 2, N-(4-((4-(3-chlorobenzoyl)piperazin-1-yl)methyl)phenyl)methanesulfonamide] here?
Its solubility is no less than 470 µM.

And the “Mouse CLi” value [2]?
The value was 2.6 mL/min/g.

What about the EC50 [3, 5] of the same compound?
The EC50 was greater than 50.1 µM.

What about the “Activity” value [3] of the same compound?
The value was “complete loss of potency”.

And the chromatographic logD [4]?
The chromatographic logD was 4.

What does the source list for `COc1ccc(S(=O)(=O)Nc2nnc(CN3CCN(C(=O)c4cccc(Cl)c4)CC3)o2)cc1` [Compound 41, N-[5-[[4-(3-chlorobenzoyl)piperazin-1-yl]methyl]-1,3,4-oxadiazol-2-yl]-4-methoxy-benzenesulfonamide]?
solubility [1]: ≥ 404 µM; Mouse CLi [2]: 0.6 mL/min/g; EC50 [3, 5]: > 50.1 µM; Activity in the intracellular T. cruzi assay (in words) [3]: inactive; chromatographic logD [4]: 1.9

Which solubility [1] does the source give for `CC#CC(=O)N1CCN(Cc2ccc(NS(=O)(=O)c3ccc(C)cc3)cc2)CC1` [Compound 26, N-(4-((4-(but-2-ynoyl)piperazin-1-yl)methyl)phenyl)-4-methylbenzenesulfonamide] here?
Its solubility is 367 µM (≈ 151 µg/mL).

What about the “Mouse CLi” value [2] of the same compound?
The value was greater than 50 mL/min/g.

What about the EC50 [3, 5] of the same compound?
Its EC50 is greater than 50.1 µM.

And the “Activity” value [3]?
The value was “inactive”.

What about the chromatographic logD [4] of the same compound?
The chromatographic logD was 4.4.

With `COc1ccc(S(=O)(=O)Nc2ccc(CN3CCN(C(=O)C4CCCN(C)C4)CC3)cc2)cc1` (stereo not drawn) [Compound 20, 4-methoxy-N-(4-((4-(1-methylpiperidine-3-carbonyl)piperazin-1-yl)methyl)phenyl)benzenesulfonamide] as the compound, how does the solubility [1] read?
The solubility was no less than 526 µM.

What about the “Mouse CLi” value [2] of the same compound?
Its value is 1.5 mL/min/g.

What about the EC50 [3, 5] of the same compound?
Its EC50 is greater than 50.1 µM.

What about the chromatographic logD [4] of the same compound?
Its chromatographic logD is 2.3.

Which results are given for `COc1ccc(S(=O)(=O)Nc2ccc(CN3CCN(C(=O)c4ccccc4)CC3)cc2)cc1` [Compound 10, N-(4-((4-benzoylpiperazin-1-yl)methyl)phenyl)-4-methoxybenzenesulfonamide]?
solubility [1]: 116 µM (≈ 54 µg/mL); Mouse CLi [2]: >50 mL/min/g; EC50 [3, 5]: 3.16 µM; chromatographic logD [4]: 4.6

For `COc1ccc(S(=O)(=O)Nc2ccc(CN3CCN(C(=O)c4cncc(Cl)c4)CC3)cc2)cc1` [Compound 16, N-(4-((4-(5-chloronicotinoyl)piperazin-1-yl)methyl)phenyl)-4-methoxybenzenesulfonamide], which solubility [1] is on record?
Its solubility is 171 µM (≈ 85.7 µg/mL).

And the “Mouse CLi” value [2]?
The value was greater than 50 mL/min/g.

And the EC50 [3, 5]?
Its EC50 is 1 µM.

And the chromatographic logD [4]?
Its chromatographic logD is 4.3.

For `Cc1ccc(S(=O)(=O)Nc2ccc(CN3CCC(NC(=O)c4cccc(Cl)c4)CC3)cc2)cc1` [Compound 37, 3-chloro-N-(1-(4-((4-methylphenyl)sulfonamido)benzyl)piperidin-4-yl)benzamide], which solubility [1] is on record?
Its solubility is 42 µM (≈ 20.9 µg/mL).

What about the “Mouse CLi” value [2] of the same compound?
The value was 37 mL/min/g.

And the EC50 [3, 5]?
The EC50 was 3.16 µM.

And the chromatographic logD [4]?
Its chromatographic logD is 5.3.

Which solubility [1] does the source give for `COc1ccc(S(=O)(=O)Nc2ccc(CN3CCN(C(=O)c4cccc(C)c4)CC3)cc2)cc1` [Compound 12] here?
The solubility was 64 µM (≈ 30.7 µg/mL).

And the EC50 [3, 5]?
The EC50 was 1 µM.

And the chromatographic logD [4]?
The chromatographic logD was 5.1.
